We go through ten compounds from patent US20260092071A1, “COMPOUNDS AND COMPOSITIONS AS SMARCA2/4 DEGRADERS AND USES THEREOF” (REGENTS OF THE UNIVERSITY OF MICHIGAN, priority 2022, published 2026).

One assay has as its target SMARCA4 (Homo sapiens, UniProt P51532). Briefly: HiBiT assay for protein degradation, Hela SMARCA4-HiBiT cells (A series). Also on record: fuse HiBiT to the carboxy terminus of SMARCA2 (Promega CS302365) or SMARCA4 (Promega CS3023225); host or cells: HeLa (CRISPR/Cas9 HiBiT knock-in). To be noted: for DC50: read-out: SMARC A4 Hela HiBit DC50. In kind it is cell-based. In a few lines: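 HeLa cells engineered by CRISPR/Cas9 to carry a HiBiT tag fused to the C-terminus of SMARCA4 (Promega CS3023225) were grown in DMEM supplemented with FBS and penicillin-streptomycin. After compound exposure, remaining SMARCA4 protein was quantified using the Nano-Glo® HiBiT Lytic Detection Assay (Promega N3050), and curves were fitted in GraphPad Prism.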
In general terms: With HiBiT, luminescence reflects the tagged protein that the partner subunit can reach.

The next assay deals with SMARCA2 (Homo sapiens, UniProt P51531). Put plainly: HiBiT assay for protein degradation, Hela SMARCA2-HiBiT cells (A series).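 On SMARC A2 Hela HiBit Dmax (%): 24 h compound treatment.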 In kind it is cell-based. On the set-up: Hela cells were genetically modified via CRISPR/Cas9 to fuse HiBiT to the carboxy terminus of SMARCA2; host or cells: HeLa (CRISPR/Cas9 HiBiT knock-in). To be noted: for DC50: read-out: SMARC A2 Hela HiBit DC50; for Dmax: read-out: SMARC A2 Hela HiBit Dmax (%). In a few lines: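 HeLa cells engineered by CRISPR/Cas9 to carry a HiBiT tag fused to the C-terminus of SMARCA2 (Promega CS302365) were grown in DMEM supplemented with FBS and penicillin-streptomycin. After treatment, remaining SMARCA2 protein was quantified with the Nano-Glo® HiBiT Lytic Detection Assay (Promega N3050), and curves were fitted in GraphPad Prism.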
Chain of SMARCA2 (P51531 whole entry, the tested form may be a part): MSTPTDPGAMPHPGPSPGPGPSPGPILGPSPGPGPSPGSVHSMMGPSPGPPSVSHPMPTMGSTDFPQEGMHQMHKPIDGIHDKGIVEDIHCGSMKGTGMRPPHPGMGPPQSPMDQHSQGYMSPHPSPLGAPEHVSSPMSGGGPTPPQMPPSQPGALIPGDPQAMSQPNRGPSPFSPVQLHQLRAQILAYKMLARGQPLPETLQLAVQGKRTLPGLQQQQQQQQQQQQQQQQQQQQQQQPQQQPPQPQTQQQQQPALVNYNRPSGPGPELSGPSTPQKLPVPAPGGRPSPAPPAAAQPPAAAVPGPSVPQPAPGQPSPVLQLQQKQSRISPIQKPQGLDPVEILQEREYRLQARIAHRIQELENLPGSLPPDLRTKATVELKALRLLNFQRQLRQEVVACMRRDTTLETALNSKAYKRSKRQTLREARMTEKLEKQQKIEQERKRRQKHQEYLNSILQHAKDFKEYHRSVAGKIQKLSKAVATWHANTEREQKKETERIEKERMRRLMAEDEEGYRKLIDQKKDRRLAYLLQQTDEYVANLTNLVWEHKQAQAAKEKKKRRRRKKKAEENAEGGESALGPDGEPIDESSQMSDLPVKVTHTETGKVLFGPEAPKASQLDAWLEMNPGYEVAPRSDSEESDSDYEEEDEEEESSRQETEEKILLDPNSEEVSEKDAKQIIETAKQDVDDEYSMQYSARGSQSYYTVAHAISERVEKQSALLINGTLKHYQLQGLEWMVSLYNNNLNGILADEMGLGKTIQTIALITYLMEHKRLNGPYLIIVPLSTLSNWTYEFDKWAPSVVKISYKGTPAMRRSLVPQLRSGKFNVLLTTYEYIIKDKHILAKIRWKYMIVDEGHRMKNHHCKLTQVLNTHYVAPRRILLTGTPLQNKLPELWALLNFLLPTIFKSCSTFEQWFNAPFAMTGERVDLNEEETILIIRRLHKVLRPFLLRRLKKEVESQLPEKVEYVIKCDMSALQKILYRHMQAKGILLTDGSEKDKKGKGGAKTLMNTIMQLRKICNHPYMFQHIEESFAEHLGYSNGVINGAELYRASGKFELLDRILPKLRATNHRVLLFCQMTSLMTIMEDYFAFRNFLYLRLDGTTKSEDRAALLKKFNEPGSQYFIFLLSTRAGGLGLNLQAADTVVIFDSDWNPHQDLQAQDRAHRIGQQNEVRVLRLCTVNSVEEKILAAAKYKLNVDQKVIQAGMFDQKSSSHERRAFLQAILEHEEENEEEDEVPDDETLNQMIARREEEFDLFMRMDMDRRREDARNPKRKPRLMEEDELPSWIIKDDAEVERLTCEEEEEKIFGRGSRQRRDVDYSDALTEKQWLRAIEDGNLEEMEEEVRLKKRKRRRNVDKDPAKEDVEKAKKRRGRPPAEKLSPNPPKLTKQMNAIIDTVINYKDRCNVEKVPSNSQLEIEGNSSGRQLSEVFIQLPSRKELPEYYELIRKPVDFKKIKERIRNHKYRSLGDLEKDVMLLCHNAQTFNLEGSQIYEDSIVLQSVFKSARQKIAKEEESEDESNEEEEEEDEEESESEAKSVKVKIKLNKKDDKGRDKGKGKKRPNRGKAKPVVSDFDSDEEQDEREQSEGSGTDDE

Where [1] appears, read: Hela SMARCA4-HiBiT cells, 24 hours treatment.
[2] abbreviates: Hela SMARCA4-HiBiT cells, 24 hours treatment, read-out: SMARC A4 Hela HiBit Dmax(%).
Setting [3] is: Hela SMARCA2-HiBiT cells, 24 hours treatment.
[4] abbreviates: Hela SMARCA4-HiBiT cells, 24 hours treatment, read-out: SMARC A4 Hela HiBit Dmax.

Like-named read-outs stand apart in the source and are kept apart here.

Chain of SMARCA4 (P51532 whole entry, the tested form may be a part): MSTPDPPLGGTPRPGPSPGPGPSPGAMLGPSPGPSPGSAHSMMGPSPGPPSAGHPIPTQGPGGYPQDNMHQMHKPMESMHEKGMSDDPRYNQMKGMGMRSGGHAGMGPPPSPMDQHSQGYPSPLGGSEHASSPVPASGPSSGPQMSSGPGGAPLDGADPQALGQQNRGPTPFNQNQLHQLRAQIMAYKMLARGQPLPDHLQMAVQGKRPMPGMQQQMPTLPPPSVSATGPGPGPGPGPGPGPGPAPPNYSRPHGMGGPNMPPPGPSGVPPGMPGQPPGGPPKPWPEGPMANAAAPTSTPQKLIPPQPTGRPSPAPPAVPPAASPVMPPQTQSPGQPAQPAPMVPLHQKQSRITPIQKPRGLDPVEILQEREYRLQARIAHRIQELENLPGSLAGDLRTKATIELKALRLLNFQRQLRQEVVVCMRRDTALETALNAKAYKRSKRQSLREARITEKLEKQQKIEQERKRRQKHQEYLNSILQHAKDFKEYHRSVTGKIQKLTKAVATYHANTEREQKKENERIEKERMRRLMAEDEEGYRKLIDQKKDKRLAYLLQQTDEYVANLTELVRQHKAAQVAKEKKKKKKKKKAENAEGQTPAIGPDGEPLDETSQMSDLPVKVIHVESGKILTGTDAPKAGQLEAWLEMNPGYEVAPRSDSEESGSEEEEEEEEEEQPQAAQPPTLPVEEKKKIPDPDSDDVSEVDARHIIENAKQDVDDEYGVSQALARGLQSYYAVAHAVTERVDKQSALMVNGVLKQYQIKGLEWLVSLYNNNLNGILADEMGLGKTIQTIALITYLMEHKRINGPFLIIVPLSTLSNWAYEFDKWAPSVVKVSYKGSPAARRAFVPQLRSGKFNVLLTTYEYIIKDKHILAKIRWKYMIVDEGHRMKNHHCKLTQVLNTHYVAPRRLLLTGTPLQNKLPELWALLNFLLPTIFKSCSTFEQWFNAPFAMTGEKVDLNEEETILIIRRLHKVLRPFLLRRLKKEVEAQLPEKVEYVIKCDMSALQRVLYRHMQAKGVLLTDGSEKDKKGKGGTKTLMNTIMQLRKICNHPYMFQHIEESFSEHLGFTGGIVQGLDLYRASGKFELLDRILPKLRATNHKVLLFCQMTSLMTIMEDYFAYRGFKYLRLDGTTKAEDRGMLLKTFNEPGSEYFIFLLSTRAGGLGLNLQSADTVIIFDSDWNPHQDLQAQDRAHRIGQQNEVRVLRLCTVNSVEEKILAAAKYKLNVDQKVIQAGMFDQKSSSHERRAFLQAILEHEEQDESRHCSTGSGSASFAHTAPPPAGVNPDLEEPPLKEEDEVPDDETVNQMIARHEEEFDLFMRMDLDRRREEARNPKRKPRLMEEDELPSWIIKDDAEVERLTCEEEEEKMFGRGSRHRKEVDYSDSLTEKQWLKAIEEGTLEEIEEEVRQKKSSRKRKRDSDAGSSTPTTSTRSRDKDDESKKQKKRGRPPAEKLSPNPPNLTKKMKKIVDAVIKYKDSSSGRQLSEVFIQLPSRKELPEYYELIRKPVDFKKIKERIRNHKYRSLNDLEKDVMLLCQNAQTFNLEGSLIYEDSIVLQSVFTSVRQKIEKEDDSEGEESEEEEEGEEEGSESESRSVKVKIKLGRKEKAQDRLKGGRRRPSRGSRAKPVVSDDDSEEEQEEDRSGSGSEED

As for `Cc1ncsc1-c1ccc([C@H](C)NC(=O)[C@@H]2C[C@@H](O)CN2C(=O)[C@@H](n2cc([C@H]3CC[C@H](CN4CCC(c5ncc6c(n5)-n5c(nc(=O)c7c(Br)cccc75)C65CCCCC5)CC4)CC3)nn2)C(C)(C)C)cc1` [Compound A31, (2S,4R)-1-((S)-2-(4-((1r,4S)-4-((4-(4′-bromo-5′-oxo-5′H-spiro[cyclohexane-1,7′-pyrimido[5′,4′: 4,5]pyrrolo[1,2-a]quinazolin]-10′-yl)piperidin-1-yl)methyl)cyclohexyl)-1H-1,2,3-triazol-1-yl)-3,3-dimethylbutanoyl)-4-hydroxy-N—((S)-1-(4-(4-methylthiazol-5-yl)phenyl)ethyl)pyrrolidine-2-carboxamide], the half-maximal degradation concentration (DC50) on SMARCA4 (setting [1]) and at SMARCA2 (setting [3]) was above 1000 nM each time. Further, the Dmax at SMARCA4 (setting [2]) was 50 to 69%; on SMARCA2 (setting [3]), below 50%.

As for `Cc1ncsc1-c1ccc([C@H](CN2CCOCC2)NC(=O)[C@@H]2C[C@@H](O)CN2C(=O)[C@@H](n2cc([C@H]3CC[C@H](CN4CCC(c5ccc6c(c5)-n5c(nc(=O)c7c(Cl)cccc75)C65CCCCC5)CC4)CC3)nn2)C(C)(C)O)cc1` [Compound A158, (2S,4R)-1-((S)-2-(4-((1r,4S)-4-((4-(4′-chloro-5′-oxo-5′H-spiro[cyclohexane-1,7′-indolo[1,2-a]quinazolin]-10′-yl)piperidin-1-yl)methyl)cyclohexyl)-1H-1,2,3-triazol-1-yl)-3-hydroxy-3-methylbutanoyl)-4-hydroxy-N-((R)-1-(4-(4-methylthiazol-5-yl)phenyl)-2-morpholinoethyl)pyrrolidine-2-carboxamide], the DC50 on SMARCA4 (setting [1]) is above 1000 nM; at SMARCA2 (setting [3]), below 10 nM. The Dmax at SMARCA4 (setting [4]) was 50 to 69%; at SMARCA2 (setting [3]), above 90%.

With `COC(=O)COC[C@H](NC(=O)[C@@H]1C[C@@H](O)CN1C(=O)[C@@H](n1cc([C@H]2CC[C@H](CN3CCC(c4ccc5c(c4)-n4c(nc(=O)c6c(Cl)cccc64)C54CCCCC4)CC3)CC2)nn1)C(C)(C)C)c1ccc(-c2scnc2C)cc1` [Compound A152, methyl 2-((R)-2-((2S,4R)-1-((S)-2-(4-((1r,4S)-4-((4-(4′-chloro-5′-oxo-5′H-spiro[cyclohexane-1,7′-indolo[1,2-a]quinazolin]-10′-yl)piperidin-1-yl)methyl)cyclohexyl)-1H-1,2,3-triazol-1-yl)-3,3-dimethylbutanoyl)-4-hydroxypyrrolidine-2-carboxamido)-2-(4-(4-methylthiazol-5-yl)phenyl)ethoxy)acetate], the DC50 at SMARCA4 (setting [1]) is above 1000 nM; at SMARCA2 (setting [3]), below 10 nM. Moreover, the Dmax at SMARCA4 (setting [4]) was 50 to 69%; at SMARCA2 (setting [3]), above 90%.

For the compound `Cc1ncsc1-c1ccc([C@H](CN2CCS(=O)(=O)CC2)NC(=O)[C@@H]2C[C@@H](O)CN2C(=O)[C@@H](n2cc([C@H]3CC[C@H](CN4CCC(c5ccc6c(c5)-n5c(nc(=O)c7c(Cl)cccc75)C65CCCCC5)CC4)CC3)nn2)C(C)(C)C)cc1` [Compound A72, (2S,4R)-1-((S)-2-(4-((1r,4S)-4-((4-(4′-chloro-5′-oxo-5′H-spiro[cyclohexane-1,7′-indolo[1,2-a]quinazolin]-10′-yl)piperidin-1-yl)methyl)cyclohexyl)-1H-1,2,3-triazol-1-yl)-3,3-dimethylbutanoyl)-N—((R)-2-(1,1-dioxidothiomorpholino)-1-(4-(4-methylthiazol-5-yl)phenyl)ethyl)-4-hydroxypyrrolidine-2-carboxamide], the DC50 at SMARCA4 (setting [1]) is above 1000 nM; on SMARCA2 (setting [3]), below 100 nM. For the same compound, the Dmax was below 50% on SMARCA4 (setting [2]) and above 90% on SMARCA2 (setting [3]).

Consider `Cc1ncsc1-c1ccc([C@H](C)NC(=O)[C@@H]2C[C@@H](O)CN2C(=O)[C@H](C2CCN(C3CCOCC3)CC2)n2cc([C@H]3CC[C@H](CN4CCC(c5ccc6c(c5)-n5c(nc(=O)c7c(Cl)cccc75)C65CCCCC5)CC4)CC3)nn2)cc1` [Compound A112, (2S,4R)-1-((S)-2-(4-((1r,4S)-4-((4-(4′-chloro-5′-oxo-5′H-spiro[cyclohexane-1,7′-indolo[1,2-a]quinazolin]-10′-yl)piperidin-1-yl)methyl)cyclohexyl)-1H-1,2,3-triazol-1-yl)-2-(1-(tetrahydro-2H-pyran-4-yl)piperidin-4-yl)acetyl)-4-hydroxy-N—((S)-1-(4-(4-methylthiazol-5-yl)phenyl)ethyl)pyrrolidine-2-carboxamide], for which the values for the DC50 on SMARCA4 (setting [1]) and at SMARCA2 (setting [3]) were 100 to 1000 nM and below 10 nM, respectively. In addition, the Dmax was 50 to 69% on SMARCA4 (setting [4]) and above 90% on SMARCA2 (setting [3]).

For the compound `Cc1ncsc1-c1ccc([C@H](CN2CC3(COC3)C2)NC(=O)[C@@H]2C[C@@H](O)CN2C(=O)[C@@H](n2cc([C@H]3CC[C@H](CN4CCC(c5ccc6c(c5)-n5c(nc(=O)c7c(Cl)cccc75)C6(C)C)CC4)CC3)nn2)C(C)(C)C)cc1` [Compound A98, (2S,4R)-1-((S)-2-(4-((1r,4S)-4-((4-(4-chloro-7,7-dimethyl-5-oxo-5,7-dihydroindolo[1,2-a]quinazolin-10-yl)piperidin-1-yl)methyl)cyclohexyl)-1H-1,2,3-triazol-1-yl)-3,3-dimethylbutanoyl)-4-hydroxy-N—((R)-1-(4-(4-methylthiazol-5-yl)phenyl)-2-(2-oxa-6-azaspiro[3.3]heptan-6-yl)ethyl)pyrrolidine-2-carboxamide], the DC50 was above 1000 nM on SMARCA4 (setting [1]) and below 10 nM on SMARCA2 (setting [3]). Also, the Dmax at SMARCA4 (setting [4]) is below 50%; on SMARCA2 (setting [3]), above 90%.

`Cc1ncsc1-c1ccc([C@H](C)NC(=O)[C@@H]2C[C@@H](O)CN2C(=O)[C@@H](n2cc(CCCCCN3CCC(c4ccc5c(c4)C4(CCCCC4)c4nc(=O)c6c(Br)cccc6n4-5)CC3)nn2)C(C)(C)C)cc1` [Compound A57, (2S,4R)-1-((S)-2-(4-(5-(4-(4′-bromo-5′-oxo-5′H-spiro[cyclohexane-1,7′-indolo[1,2-a]quinazolin]-9′-yl)piperidin-1-yl)pentyl)-1H-1,2,3-triazol-1-yl)-3,3-dimethylbutanoyl)-4-hydroxy-N—((S)-1-(4-(4-methylthiazol-5-yl)phenyl)ethyl)pyrrolidine-2-carboxamide]: the DC50 at SMARCA4 (setting [1]) and at SMARCA2 (setting [3]) was below 100 nM throughout. Also, the Dmax at SMARCA4 (setting [2]) and on SMARCA2 (setting [3]) was above 90% throughout.

`Cc1ncsc1-c1ccc([C@H](C)NC(=O)[C@@H]2C[C@@H](O)CN2C(=O)[C@@H](NC(=O)CCCCN2CCC(c3ccc4c(c3)C3(CCCCC3)c3nc(=O)c5c(Cl)cccc5n3-4)CC2)C(C)(C)C)cc1` [Compound A8, (2S,4R)-1-((S)-2-(5-(4-(4′-chloro-5′-oxo-5′H-spiro[cyclohexane-1,7′-indolo[1,2-a]quinazolin]-9′-yl)piperidin-1-yl)pentanamido)-3,3-dimethylbutanoyl)-4-hydroxy-N—((S)-1-(4-(4-methylthiazol-5-yl)phenyl)ethyl) pyrrolidine-2-carboxamide]: the Dmax at SMARCA4 (HeLa, read-out: SMARC A4 Hela HiBit Dmax(%)) is below 50%; at SMARCA2 (HeLa), 70 to 90%. The DC50 was above 1000 nM at SMARCA4 (setting [1]) and 100 to 500 nM on SMARCA2 (setting [3]).

`Cc1ncsc1-c1ccc([C@H](Cn2cc(CN3CCC(c4ccc5c(c4)-n4c(nc(=O)c6c(Br)cccc64)C54CCCCC4)CC3)nn2)NC(=O)[C@@H]2C[C@@H](O)CN2C(=O)[C@@H](n2cc(C3CC3)nn2)C(C)(C)C)cc1` [Compound A114, (2S,4R)—N—((R)-2-(4-((4-(4′-bromo-5′-oxo-5′H-spiro[cyclohexane-1,7′-indolo[1,2-a]quinazolin]-10′-yl)piperidin-1-yl)methyl)-1H-1,2,3-triazol-1-yl)-1-(4-(4-methylthiazol-5-yl)phenyl)ethyl)-1-((S)-2-(4-cyclopropyl-1H-1,2,3-triazol-1-yl)-3,3-dimethylbutanoyl)-4-hydroxypyrrolidine-2-carboxamide]: the DC50 fell in the range of 100 to 1000 nM on SMARCA4 (setting [1]) and 10 to 100 nM at SMARCA2 (setting [3]). Besides, the Dmax on SMARCA4 (setting [4]) and on SMARCA2 (setting [3]) was 70 to 90% each time.

For `CC(C)(C)[C@@H](C(=O)N1C[C@H](O)C[C@H]1C(=O)N[C@@H](CN1CCOCC1)c1ccc(-c2ccccc2F)cc1)n1cc([C@H]2CC[C@H](CN3CCC(c4ccc5c(c4)-n4c(nc(=O)c6c(Cl)cccc64)C54CCCCC4)CC3)CC2)nn1` [Compound A164, (2S,4R)-1-((S)-2-(4-((1r,4S)-4-((4-(4′-chloro-5′-oxo-5′H-spiro[cyclohexane-1,7′-indolo[1,2-a]quinazolin]-10′-yl)piperidin-1-yl)methyl)cyclohexyl)-1H-1,2,3-triazol-1-yl)-3,3-dimethylbutanoyl)-N—((R)-1-(2′-fluoro-[1,1′-biphenyl]-4-yl)-2-morpholinoethyl)-4-hydroxypyrrolidine-2-carboxamide], the results for the DC50 at SMARCA4 (setting [1]) and at SMARCA2 (setting [3]) were 100 to 1000 nM and below 10 nM, respectively. Besides, the Dmax at SMARCA4 (setting [4]) was 50 to 69%; on SMARCA2 (setting [3]), above 90%.

One may read the DC50 as the midpoint of the concentration-degradation curve. As usually defined, the Dmax is the greatest extent of degradation seen.
